Results reported in patent publication US20100113390A1, “OLIGOSACCHARIDES DERIVED FROM FUCOIDAN” (SUNTORY HOLDINGS LIMITED, priority 2007, published 2010).

Experiments:
α-glucosidase = experiment: Measurement of α-glucosidase activity (p-nitrophenyl-α-D-glucopyranoside substrate, A405 nm); format: biochemical, yeast; settings: for α-glucosidase inhibitory activity (% inhibition): at 5 mg/ml (samples adjusted to 50 mg/ml H2O), duplicate, FIG. 29
Description: 1. 0.1 M sodium phosphate buffer (a mixture of 0.1 M NaH2PO4.2H2O and 0.1 M Na2HPO4.12H2O, adjusted to pH 7.0) was supplemented with 2 g/L bovine serum albumin (a product of Nacalai Tesque, Inc., Japan, F-V, pH 5.2, purity: 96%) and 0.2 g/L NaN3 (a product of Nacalai Tesque, Inc., Japan, reagent grade). As an enzyme solution, α-glucosidase (a product of Wako Pure Chemical Industries, Ltd., Japan, derived from yeast, 100 units/mg) was dissolved in the above buffer at 0.5 units/mg protein/ml (100 μg/20 ml). As a substrate solution, p-nitrophenyl-α-D-glucopyranoside (a product of Nacalai Tesque, Inc., Japan, reagent grade) was dissolved in the above buffer at 5 mM (7.525 mg/5 ml). 2. For use as samples, GF (I) purified in Example 3 was adjusted to 200 mg/ml H2O and diluted two-fold to give 6 dilutions. Using a 96-well microplate, the enzyme solution (45 μL) was added to each of the sample solutions (10 μL) and pre-incubated at 37° C. for 5 minutes. After addition of the substrate solution (45 μL), each sample was measured for absorbance A405 nm (A405 nm at 0 min) and, after incubation at 37° C. for 5 minutes, was then measured for absorbance A405 nm (A405 nm at 5 min). As a control, H2O was added in place of the samples and measured for absorbance. The difference in A405 nm from the control was calculated as % inhibition. Activity measurement was made in quadruplicate. 3. […] As comparative samples, X2 (xylobiose) and glucuronic acid (Sigma-Aldrich) were neutralized with NaOH and adjusted to 50 mg/ml H2O (calculated based on the amount of glucuronic acid). […] After addition of the substrate solution (45 μl), each of the samples was measured for absorbance A405 nm (A405 nm at 0 min) and, after incubation at 37° C. for 5 minutes, was then measured for absorbance A405 nm (A405 nm at 5 min). As a control, H2O was added in place of the samples, and the difference in A405 nm from the control was calculated as % inhibition. […]

[1] = target: T1, porcine pancreatic lipase (Sus scrofa, UniProt P00591); experiment: Measurement of lipase inhibitory activity (4-methylumbelliferone oleic acid ester, fluorescence); format: biochemical; settings: at 4 mg/ml final concentration, FIG. 30
T1 construct: purchased SIGMA
T1 sequence (P00591 1-450): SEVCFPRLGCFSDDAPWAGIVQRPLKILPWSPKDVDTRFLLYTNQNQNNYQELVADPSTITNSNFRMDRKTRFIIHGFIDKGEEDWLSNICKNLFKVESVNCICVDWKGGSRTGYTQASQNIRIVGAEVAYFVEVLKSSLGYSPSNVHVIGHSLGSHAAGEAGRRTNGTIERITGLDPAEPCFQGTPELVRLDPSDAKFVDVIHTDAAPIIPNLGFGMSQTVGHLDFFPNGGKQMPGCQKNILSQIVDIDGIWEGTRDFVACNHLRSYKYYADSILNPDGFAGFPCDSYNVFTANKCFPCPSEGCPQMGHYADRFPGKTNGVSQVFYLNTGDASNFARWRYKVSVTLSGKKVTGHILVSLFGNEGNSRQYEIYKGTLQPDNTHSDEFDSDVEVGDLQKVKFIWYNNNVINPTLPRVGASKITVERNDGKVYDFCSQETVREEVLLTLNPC
Description: 1. In a 96-well flat-bottomed plate, GF (I) prepared in Example 3, as well as the GSFaF (VII)-containing fraction and the GSF fraction containing (V) and GSFF (VI) prepared in Example 4 were each adjusted to give a final concentration of 4 mg/ml (25 μl), followed by addition of 50 μl buffer (130 mM Tris-HCl buffer (pH 8.0, containing 150 mM NaCl and 1.36 mM CaCl2)) and 25 μl 4-methylumbelliferone oleic acid ester (SIGMA, final concentration: 100 μM). The plate was allowed to stand for 30 minutes at room temperature. Then, lipase (porcine pancreatic lipase, SIGMA) was added in a volume of 50 μl (final concentration: 100 U/ml) to initiate the reaction. 2. After 30 minutes, 100 μl citrate buffer (pH 4.2) was added to stop the reaction. The fluorescence intensity of 4-methylumbelliferone generated by the reaction (excitation wavelength: 355 nm, fluorescence wavelength: 460 nm) was measured with a fluorescence plate reader (Fluoroskan Asent CF, Labsystems). 3. As a control, water was used in place of the samples. As a blank, water was used in place of the samples and buffer was used in place of lipase. The following equation was used to calculate lipase inhibitory activity. 4. Calculation equation
Lipase inhibitory activity (%)=100−(A−B)/(C−B)×100
A: fluorescence intensity in sample, B: fluorescence intensity in blank, C: fluorescence intensity in control

| SMILES | α-glucosidase IC50 (α-glucosidase; GF (I) purified in Example 3, 6 two-fold dilutions, quadruplicate) [mg/mL] | inhibition at 4000 µg/mL [1] [%] | α-glucosidase inhibitory activity (% inhibition) (α-glucosidase) [%] |
| --- | --- | --- | --- |
| CC1OC(O)C(OC2OC(C(=O)O)C(O)C(O)C2O)C(O)C1O [GF (I), α-D-GlcA-(1→2)-L-Fuc] | 20.4 | 81 | – |
| OC1OC[C@@H](O[C@@H]2OC[C@@H](O)[C@H](O)[C@H]2O)[C@H](O)[C@H]1O (stereo partly shown) [X2, xylobiose] | – | – | 10.15 |
| O=C(O)[C@H]1OC(O)[C@H](O)[C@@H](O)[C@@H]1O (stereo partly shown) [glucuronic acid] | – | – | 8 |
